The compounds below were run against T1, SmCA (Schistosoma mansoni, UniProt A0A4Y5UX87) (assay: stopped-flow CO2 hydrase assay). Details: not given.
T1 construct: rSmCA N21-A298, signal peptide and C-terminal GPI-anchoring signal removed; Igk leader, C-terminal myc and His6 tags; secreted by CHO-S cells, IMAC; codon-optimized gene; native ~37 kDa GPI-linked glycoprotein
T1 sequence (A0A4Y5UX87 21-298): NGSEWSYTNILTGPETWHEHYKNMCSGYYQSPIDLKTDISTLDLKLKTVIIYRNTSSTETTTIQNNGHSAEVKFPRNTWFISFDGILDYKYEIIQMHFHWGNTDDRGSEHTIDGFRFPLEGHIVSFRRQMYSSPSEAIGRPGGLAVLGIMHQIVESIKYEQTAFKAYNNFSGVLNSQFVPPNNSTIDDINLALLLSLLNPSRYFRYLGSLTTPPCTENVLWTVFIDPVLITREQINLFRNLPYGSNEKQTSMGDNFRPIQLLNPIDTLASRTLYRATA
Type: biochemical
Text: stopped-flow CO2 hydrase assay on SmCA
`NCCc1ccc(S(N)(=O)=O)cc1` [compound 6, 6] was tested, and the Ki was 7240 ± 144 nM.

Same assay, conditions: read-out: SmCA ^b
`NS(=O)(=O)c1ccc(CO)cc1` [compound 16, 16] was tested, and the Ki was 1460 ± 32.1 nM.
In the case of `NCc1ccc(S(N)(=O)=O)cc1` [compound 5, 5], the Ki is reported as 9560 ± 191 nM.
Compound `Nc1nnc(S(N)(=O)=O)s1` [compound 13, 13] has a Ki of 137 ± 6.5 nM.
For `Nc1ccc(S(N)(=O)=O)cc1Br` [compound 9, 9], the Ki was 808 ± 16.9 nM.
`Cn1nc(S(N)(=O)=O)sc1=N` [compound 14, 14] showed a Ki of 325 ± 6.5 nM.
In the case of `Cc1ccc(S(N)(=O)=O)cc1` [compound 4, 4], the Ki is reported as 4530 ± 90 nM.
In the case of `NS(=O)(=O)c1ccc(CCNS(=O)(=O)c2ccc([N+](=O)[O-])cc2CO)cc1` [compound 21, 21], the Ki is reported as 163 ± 6.5 nM.
Work on `Nc1ccc(S(=O)(=O)NCc2ccc(S(N)(=O)=O)cc2)cc1` [compound 23, 23] yielded a Ki of 524 ± 15.7 nM.
`Nc1cc(C(F)(F)F)c(S(N)(=O)=O)cc1S(N)(=O)=O` [compound 11, 11] showed a Ki of 183 ± 9.1 nM.
With `Nc1ccc(S(N)(=O)=O)cc1Cl` [compound 8, 8] the Ki was 737 ± 19.1 nM.
`NS(=O)(=O)c1ccc(CCO)cc1` [compound 17, 17] showed a Ki of 606 ± 21.3 nM.
For `Nc1ccc(S(=O)(=O)Nc2nnc(S(N)(=O)=O)s2)cc1` [compound 20, 20], the Ki was 124 ± 5.9 nM.
Work on `Nc1cc(Cl)c(S(N)(=O)=O)cc1S(N)(=O)=O` [compound 12, 12] yielded a Ki of 645 ± 19.9 nM.
`NS(=O)(=O)c1ccc(C(=O)O)cc1` [compound 18, 18] showed a Ki of 821 nM.
In the case of `Nc1ccc(S(N)(=O)=O)cc1` [compound 2, 2], the Ki is reported as 6820 ± 150 nM.
`NS(=O)(=O)c1cccc(S(N)(=O)=O)c1` [compound 3, 3] gave a Ki of 916 ± 23.8 nM.
`NS(=O)(=O)c1ccc(O)cc1` [compound 15, 15] was tested, and the Ki was 758 ± 26.5 nM.
With `Nc1ccc(S(N)(=O)=O)cc1F` [compound 7, 7] the Ki was 3190 ± 70 nM.
In the case of `Nc1ccc(S(=O)(=O)Nc2ccc(S(N)(=O)=O)cc2)cc1` [compound 22, 22], the Ki is reported as 550 ± 14.8 nM.
For `Nc1nccc(Nc2ccc(S(N)(=O)=O)cc2)n1` [compound 19, 19], the Ki was 1830 ± 36.6 nM.
With `NS(=O)(=O)c1cc(Cl)cc(Cl)c1O` [compound 10, 10] the Ki was 9270 ± 185 nM.
With `Nc1cccc(S(N)(=O)=O)c1` [compound 1, 1] the Ki was 8420 ± 177 nM.
`Nc1ccc(S(=O)(=O)NCCc2ccc(S(N)(=O)=O)cc2)cc1` [compound 24, 24] showed a Ki of 183 ± 4.5 nM.

— PMC7084386, “Sulfonamide Inhibition Studies of an α-Carbonic Anhydrase from Schistosoma mansoni, a Platyhelminth Parasite Responsible for Schistosomiasis” (International Journal of Molecular Sciences, 2020)
